Among the targets are Melanocortin receptor 4 (Homo sapiens, UniProt P32245); Histamine H1 receptor (Homo sapiens, UniProt P35367); Glucagon receptor (Homo sapiens, UniProt P47871).
Assay [1] deals with Voltage-dependent N-type calcium channel subunit alpha-1B (Rattus norvegicus, UniProt Q02294). Type of assay: functional.
For assay [2], the target named is T1, Alpha-1A adrenergic receptor (Homo sapiens, UniProt P35348).
T1 sequence (P35348 whole entry): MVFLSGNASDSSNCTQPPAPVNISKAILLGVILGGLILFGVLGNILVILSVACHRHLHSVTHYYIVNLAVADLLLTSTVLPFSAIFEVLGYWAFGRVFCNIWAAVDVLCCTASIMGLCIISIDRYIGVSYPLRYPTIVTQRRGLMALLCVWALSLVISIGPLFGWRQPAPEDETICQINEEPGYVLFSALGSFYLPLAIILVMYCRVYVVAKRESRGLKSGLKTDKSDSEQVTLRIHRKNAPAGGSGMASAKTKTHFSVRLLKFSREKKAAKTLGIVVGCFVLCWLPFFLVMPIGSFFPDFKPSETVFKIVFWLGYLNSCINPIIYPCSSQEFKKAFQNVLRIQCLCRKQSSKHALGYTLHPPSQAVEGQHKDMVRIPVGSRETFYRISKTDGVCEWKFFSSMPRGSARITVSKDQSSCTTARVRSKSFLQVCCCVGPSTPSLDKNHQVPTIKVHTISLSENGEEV

For assay [3], the target named is T1, Alpha-1A adrenergic receptor. The source holds these as a separate data set.
Assay [4] addresses T2, Endothelin receptor type B (Homo sapiens, UniProt P24530).
T2 sequence (P24530 whole entry): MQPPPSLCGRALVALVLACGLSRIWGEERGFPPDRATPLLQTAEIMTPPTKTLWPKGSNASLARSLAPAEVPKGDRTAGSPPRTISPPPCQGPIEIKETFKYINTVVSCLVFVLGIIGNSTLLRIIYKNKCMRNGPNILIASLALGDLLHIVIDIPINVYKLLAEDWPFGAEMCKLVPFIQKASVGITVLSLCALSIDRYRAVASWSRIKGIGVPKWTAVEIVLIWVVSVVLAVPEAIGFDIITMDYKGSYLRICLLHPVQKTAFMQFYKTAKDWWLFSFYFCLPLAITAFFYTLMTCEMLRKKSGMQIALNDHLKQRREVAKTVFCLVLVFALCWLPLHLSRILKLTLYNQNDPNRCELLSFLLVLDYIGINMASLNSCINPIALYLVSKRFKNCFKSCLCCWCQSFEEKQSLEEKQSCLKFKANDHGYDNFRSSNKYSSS

The next assay has as its target T3, Glucocorticoid receptor (Homo sapiens, UniProt P04150).
T3 sequence (P04150 whole entry): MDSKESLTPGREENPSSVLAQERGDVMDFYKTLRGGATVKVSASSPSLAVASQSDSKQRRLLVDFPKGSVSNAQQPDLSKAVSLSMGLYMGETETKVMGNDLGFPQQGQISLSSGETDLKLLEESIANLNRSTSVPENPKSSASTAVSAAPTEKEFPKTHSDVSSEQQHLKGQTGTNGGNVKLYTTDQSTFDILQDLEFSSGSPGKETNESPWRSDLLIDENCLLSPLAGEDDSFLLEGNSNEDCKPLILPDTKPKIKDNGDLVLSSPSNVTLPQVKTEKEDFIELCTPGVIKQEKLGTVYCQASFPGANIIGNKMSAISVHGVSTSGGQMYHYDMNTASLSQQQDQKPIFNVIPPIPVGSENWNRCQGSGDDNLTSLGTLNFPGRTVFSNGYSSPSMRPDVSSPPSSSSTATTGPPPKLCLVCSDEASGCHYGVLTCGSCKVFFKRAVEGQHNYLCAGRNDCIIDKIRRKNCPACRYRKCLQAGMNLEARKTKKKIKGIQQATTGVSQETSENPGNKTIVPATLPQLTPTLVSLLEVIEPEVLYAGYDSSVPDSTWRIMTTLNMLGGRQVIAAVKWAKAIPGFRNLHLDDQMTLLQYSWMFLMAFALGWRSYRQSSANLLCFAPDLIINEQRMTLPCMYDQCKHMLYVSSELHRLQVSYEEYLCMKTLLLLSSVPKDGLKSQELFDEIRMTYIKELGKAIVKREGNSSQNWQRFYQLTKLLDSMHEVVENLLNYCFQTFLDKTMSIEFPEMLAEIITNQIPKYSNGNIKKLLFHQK

The target of assay [5] is T4, 5-hydroxytryptamine receptor 1A (Homo sapiens, UniProt P08908).
T4 sequence (P08908 whole entry): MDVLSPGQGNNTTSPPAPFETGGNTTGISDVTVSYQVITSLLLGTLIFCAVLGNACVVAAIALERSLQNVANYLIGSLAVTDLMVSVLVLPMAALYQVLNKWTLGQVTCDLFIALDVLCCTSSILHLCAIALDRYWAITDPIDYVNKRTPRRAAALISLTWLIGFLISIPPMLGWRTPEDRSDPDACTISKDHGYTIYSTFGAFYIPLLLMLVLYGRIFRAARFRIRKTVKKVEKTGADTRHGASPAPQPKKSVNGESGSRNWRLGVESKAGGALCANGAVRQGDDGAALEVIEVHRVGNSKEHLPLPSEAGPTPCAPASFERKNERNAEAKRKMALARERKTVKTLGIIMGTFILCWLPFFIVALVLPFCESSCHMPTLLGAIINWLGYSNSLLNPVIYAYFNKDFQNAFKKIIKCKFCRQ

Assay [6] addresses T5, Corticotropin-releasing factor receptor 2 (Homo sapiens, UniProt Q13324).
T5 sequence (Q13324 whole entry): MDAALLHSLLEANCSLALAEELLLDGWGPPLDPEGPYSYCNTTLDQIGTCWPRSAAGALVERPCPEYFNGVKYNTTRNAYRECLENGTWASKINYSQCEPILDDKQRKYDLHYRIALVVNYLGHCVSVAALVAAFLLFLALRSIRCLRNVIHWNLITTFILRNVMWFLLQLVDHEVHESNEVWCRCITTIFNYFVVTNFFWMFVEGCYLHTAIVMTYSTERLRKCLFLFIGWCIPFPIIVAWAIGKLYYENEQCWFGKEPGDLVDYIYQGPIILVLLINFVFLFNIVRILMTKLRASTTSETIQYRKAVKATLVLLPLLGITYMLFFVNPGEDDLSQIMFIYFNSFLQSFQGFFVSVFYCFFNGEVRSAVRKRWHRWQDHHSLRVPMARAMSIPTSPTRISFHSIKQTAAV

Assay [7] addresses Gamma-aminobutyric acid receptor subunit alpha-1/alpha-2/beta-2/gamma-2 (Homo sapiens, UniProt P14867+P18507+P47869+P47870). The class given is protein-complex assay.

Molecules are shown by their SMILES. Bounds are passed on as bounds.
Note: assay procedure not described here.

Melanocortin receptor 4, sequence (P32245 whole entry): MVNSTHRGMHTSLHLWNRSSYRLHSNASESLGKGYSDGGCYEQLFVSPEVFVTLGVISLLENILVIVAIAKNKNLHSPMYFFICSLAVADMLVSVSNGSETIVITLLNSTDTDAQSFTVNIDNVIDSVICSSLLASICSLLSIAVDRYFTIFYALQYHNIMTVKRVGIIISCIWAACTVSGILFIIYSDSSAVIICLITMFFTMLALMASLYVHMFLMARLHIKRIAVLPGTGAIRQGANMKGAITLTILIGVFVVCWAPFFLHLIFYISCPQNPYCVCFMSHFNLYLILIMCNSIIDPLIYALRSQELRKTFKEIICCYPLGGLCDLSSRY
Glucagon receptor, sequence (P47871 whole entry): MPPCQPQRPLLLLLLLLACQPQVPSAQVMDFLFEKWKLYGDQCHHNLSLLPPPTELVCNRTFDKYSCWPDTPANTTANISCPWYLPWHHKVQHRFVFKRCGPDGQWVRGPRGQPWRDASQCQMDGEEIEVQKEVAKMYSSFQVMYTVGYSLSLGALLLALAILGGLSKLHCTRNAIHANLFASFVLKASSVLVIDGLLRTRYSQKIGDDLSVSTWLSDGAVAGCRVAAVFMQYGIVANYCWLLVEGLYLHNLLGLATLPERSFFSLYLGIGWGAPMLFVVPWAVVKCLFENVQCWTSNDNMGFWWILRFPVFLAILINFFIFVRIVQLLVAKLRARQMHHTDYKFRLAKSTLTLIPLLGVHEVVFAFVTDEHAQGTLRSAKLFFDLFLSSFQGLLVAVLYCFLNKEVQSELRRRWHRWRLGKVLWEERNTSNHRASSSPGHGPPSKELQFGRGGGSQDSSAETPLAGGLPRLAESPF
Voltage-dependent N-type calcium channel subunit alpha-1B, sequence (Q02294 whole entry): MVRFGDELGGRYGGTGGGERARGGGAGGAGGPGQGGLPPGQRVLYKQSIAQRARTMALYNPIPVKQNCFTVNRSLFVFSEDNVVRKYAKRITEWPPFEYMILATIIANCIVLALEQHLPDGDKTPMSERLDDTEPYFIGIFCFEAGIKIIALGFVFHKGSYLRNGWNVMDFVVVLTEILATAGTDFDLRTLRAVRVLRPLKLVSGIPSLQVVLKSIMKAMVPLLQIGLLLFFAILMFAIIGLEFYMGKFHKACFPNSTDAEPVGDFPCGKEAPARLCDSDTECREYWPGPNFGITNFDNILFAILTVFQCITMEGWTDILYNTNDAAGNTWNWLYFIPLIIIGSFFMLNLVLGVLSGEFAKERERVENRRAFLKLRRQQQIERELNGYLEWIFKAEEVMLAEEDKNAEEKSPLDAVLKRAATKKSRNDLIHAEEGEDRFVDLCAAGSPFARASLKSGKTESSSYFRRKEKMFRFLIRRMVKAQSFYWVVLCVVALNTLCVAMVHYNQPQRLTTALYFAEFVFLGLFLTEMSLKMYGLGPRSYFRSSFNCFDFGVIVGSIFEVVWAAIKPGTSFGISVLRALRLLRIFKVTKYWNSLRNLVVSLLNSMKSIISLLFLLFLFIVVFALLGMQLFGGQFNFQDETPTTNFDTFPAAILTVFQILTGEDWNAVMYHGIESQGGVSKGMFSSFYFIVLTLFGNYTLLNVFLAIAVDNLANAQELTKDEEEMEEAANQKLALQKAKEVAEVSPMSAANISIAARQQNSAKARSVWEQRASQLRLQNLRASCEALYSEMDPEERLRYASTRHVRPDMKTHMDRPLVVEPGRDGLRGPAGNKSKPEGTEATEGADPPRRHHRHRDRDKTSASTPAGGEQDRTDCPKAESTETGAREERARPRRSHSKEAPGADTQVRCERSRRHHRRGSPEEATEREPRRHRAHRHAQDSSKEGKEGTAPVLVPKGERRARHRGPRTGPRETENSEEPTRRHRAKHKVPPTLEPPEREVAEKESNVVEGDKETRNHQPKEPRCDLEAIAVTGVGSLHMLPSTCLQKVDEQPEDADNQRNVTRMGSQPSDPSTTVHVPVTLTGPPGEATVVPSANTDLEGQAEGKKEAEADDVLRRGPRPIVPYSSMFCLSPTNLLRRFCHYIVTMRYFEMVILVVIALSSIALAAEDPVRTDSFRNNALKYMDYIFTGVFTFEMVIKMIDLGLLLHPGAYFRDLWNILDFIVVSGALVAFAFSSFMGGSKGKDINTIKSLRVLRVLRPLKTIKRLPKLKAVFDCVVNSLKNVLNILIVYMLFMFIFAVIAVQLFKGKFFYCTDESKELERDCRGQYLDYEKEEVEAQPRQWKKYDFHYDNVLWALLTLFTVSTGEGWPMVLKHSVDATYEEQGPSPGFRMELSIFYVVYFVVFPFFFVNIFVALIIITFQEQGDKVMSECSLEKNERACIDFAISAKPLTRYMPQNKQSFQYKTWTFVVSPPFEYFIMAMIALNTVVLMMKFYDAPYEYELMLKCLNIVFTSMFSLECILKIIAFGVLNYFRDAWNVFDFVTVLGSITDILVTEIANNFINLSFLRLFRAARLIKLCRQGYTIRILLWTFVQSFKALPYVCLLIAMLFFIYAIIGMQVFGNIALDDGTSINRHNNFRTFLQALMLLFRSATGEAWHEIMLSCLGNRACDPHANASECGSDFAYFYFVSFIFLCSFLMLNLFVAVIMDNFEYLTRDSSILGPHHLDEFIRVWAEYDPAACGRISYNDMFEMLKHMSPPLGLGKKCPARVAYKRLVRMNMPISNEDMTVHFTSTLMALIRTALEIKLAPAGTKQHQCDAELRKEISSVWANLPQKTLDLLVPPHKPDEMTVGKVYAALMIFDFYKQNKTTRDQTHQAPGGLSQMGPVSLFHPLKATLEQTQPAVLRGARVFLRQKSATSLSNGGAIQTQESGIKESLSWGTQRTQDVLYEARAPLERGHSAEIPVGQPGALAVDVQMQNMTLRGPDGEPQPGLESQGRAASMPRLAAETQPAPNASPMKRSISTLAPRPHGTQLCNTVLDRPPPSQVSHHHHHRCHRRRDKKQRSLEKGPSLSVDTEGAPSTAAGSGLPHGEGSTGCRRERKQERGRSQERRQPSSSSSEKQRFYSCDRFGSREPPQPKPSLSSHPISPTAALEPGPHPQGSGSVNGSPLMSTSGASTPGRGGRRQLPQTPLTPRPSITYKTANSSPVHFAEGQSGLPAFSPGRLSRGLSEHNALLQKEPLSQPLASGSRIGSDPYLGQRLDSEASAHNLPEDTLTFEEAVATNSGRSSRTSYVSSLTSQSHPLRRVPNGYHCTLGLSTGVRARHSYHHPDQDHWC
Histamine H1 receptor, sequence (P35367 whole entry): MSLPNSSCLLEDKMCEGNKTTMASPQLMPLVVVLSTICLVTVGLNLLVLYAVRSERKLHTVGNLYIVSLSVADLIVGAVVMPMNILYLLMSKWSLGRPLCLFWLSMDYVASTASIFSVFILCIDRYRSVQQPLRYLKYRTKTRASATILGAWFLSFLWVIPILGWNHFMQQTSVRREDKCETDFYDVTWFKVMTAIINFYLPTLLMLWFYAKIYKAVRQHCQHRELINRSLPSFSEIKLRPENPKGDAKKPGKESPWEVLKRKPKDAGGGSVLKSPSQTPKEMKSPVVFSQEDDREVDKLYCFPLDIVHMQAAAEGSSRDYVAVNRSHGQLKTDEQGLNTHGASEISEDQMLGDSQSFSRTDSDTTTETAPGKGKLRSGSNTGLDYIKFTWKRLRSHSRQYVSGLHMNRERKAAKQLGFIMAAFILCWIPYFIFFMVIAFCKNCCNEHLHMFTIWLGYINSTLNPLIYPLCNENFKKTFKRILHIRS

As to `CCCc1nc2c(C)cc(-c3nc4ccccc4n3C)cc2n1Cc1ccc(-c2ccccc2C(=O)O)cc1`, the AC50 – broadly, the midpoint of the concentration-response curve, whichever way the signal moves – at Melanocortin receptor 4 was > 30 µM; in [1] it was > 10 µM; in assay [2], > 10 µM; in assay [3], > 10 µM; in assay [4], > 30 µM; at Glucocorticoid receptor, > 30 µM. The AC50 in assay [5] was > 10 µM; at Histamine H1 receptor, > 30 µM; in [6], > 30 µM; on Glucagon receptor it was > 30 µM.

Consider `O=C(O)Cc1ccccc1Nc1c(Cl)cccc1Cl` [DICLOFENAC], for which the half-maximal activity concentration (AC50) at Melanocortin receptor 4 was > 30 µM; in assay [1], > 10 µM; in assay [2], 5 µM; in assay [7] it was > 3 µM; in assay [3], > 10 µM; in assay [4] it was > 30 µM. For the same compound, the concentration at half-maximal activity (AC50) in assay [5] was > 10 µM; in assay [6], > 30 µM; at Glucagon receptor, > 30 µM.

As to `O=C(O)Cc1ccccc1Oc1ccc(Cl)cc1Cl` [FENCLOFENAC], the AC50 on Melanocortin receptor 4 was > 30 µM; in [1], > 10 µM; in assay [2], > 10 µM; in [3] it was > 10 µM; in assay [4], > 30 µM; on Glucocorticoid receptor, > 30 µM. Further, the AC50 was > 10 µM in [5], > 10 µM on Histamine H1 receptor, > 30 µM in [6] and > 30 µM at Glucagon receptor.

On to `O=C1Cc2cc(CCN3CCN(c4nsc5ccccc45)CC3)c(Cl)cc2N1` [ZIPRASIDONE], for which the AC50 on Melanocortin receptor 4 is > 30 µM; in assay [1], > 10 µM; in assay [2], 0.0275 µM; in [7], > 30 µM; in [3], 0.0317 µM; in assay [4], > 30 µM. Besides, the AC50 at Glucocorticoid receptor is > 30 µM; in [5] it was 0.008 µM; in assay [6], > 30 µM; at Glucagon receptor, > 30 µM.

The values above are taken from ChEMBL document CHEMBL5291721, “A preclinical secondary pharmacology resource illuminates target-adverse drug reaction associations of marketed drugs” (Nat Commun, 2023).
